The values that follow come from patent US6585988B2, “Reaction product of arginine and p-aminobenzoic acid, cosmetic, and human and animal health compositions thereof” (Epicare Ltd., priority 1998, dated 2003).

The experiment concerns clinical mastitis. In words: Field trials: intramammary infusion in mastitis. The class given is in vivo, cow. Conditions: treated one time on the previous day. An excerpt: CDRMREC was infused up the teat duct of all 4 quarters of a cow that had clinical mastitis in the left hindquarter. […] Additionally, because of a differential in the vacuum when milking the cow, infected discharge from the left hindquarter contaminated the left fore quarter which then began to show symptoms of clinical mastitis (flaking in the milk). The left fore quarter had not been infused with erythromycin. […] All signs of swelling were gone. The milk from all quarters was normal and untainted.
Treatment consisted of six 10 ml intramamery ductal infusions of CDRMREC in the afflicted quarter following each milking.
A Jersey cow was suffering from mastitis in the right forequarter and had received an antibiotic infusion in that quarter. […] The next day, after the PM milking, she received only one 10 ml infusion of CDRMREC in each of her quarters.
Her milk appeared normal. Three days later, the swelling was still present and like a flattened golf ball but the milk tested normal.

Take `CC[C@H]1OC(=O)[C@H](C)[C@@H](O[C@H]2C[C@@](C)(OC)[C@@H](O)[C@H](C)O2)[C@H](C)[C@@H](O[C@@H]2O[C@H](C)C[C@H](N(C)C)[C@H]2O)[C@](C)(O)C[C@@H](C)C(=O)[C@H](C)[C@@H](O)[C@]1(C)O` [erythromycin]: the “swelling of afflicted quarter” value was “the swelling still remained”.
